Values quoted from earlier work as cited in US11136546B2, “Recombinant Escherichia coli and application of the same” (Zhengzhou Zhonghao Biological Technology Co., Ltd., priority 2018, dated 2021).
Where no end group is shown, it is not given here.

Experiments:
pathogenic E. coli = settings: in vitro bacteriostatic tests; a variety of pathogenic E. coli
Salmonella = settings: in vitro bacteriostatic tests

Microcin J25: antibacterial lasso peptide consisting of 21 amino acids (SEQ ID No.: 4), obtained by fermentation of genetically engineered Escherichia coli (GGAGHVPEYFVGIGTPISFYG; also: lasso cyclisation, places not given here)
killing of pathogenic E. coli (pathogenic E. coli): able to kill | killing of Salmonella (Salmonella): able to kill
